Active and inactive are the calls of the source. The rule behind the calls is not given here.
Legend:
[1] = Inhibition of oxidative phosphorylation complex I in human MIA PaCa-2 cells assessed as reduction in NAD+/NADH ratio incubated for 48 hrs by NAD/NADH-Glo assay; assay type: cell-based; conditions: MIA PaCa-2, 48 h
MIA PaCa-2 [2] = assay: Cytotoxicity against human MIA PaCa-2 cells assessed as inhibition of cell growth incubated for 3 days in galactose-containing medium by MTT assay; assay type: functional, cell-based; conditions: MIA PaCa-2, 72 h
[3] = Inhibition of oxidative phosphorylation in human MIA PaCa-2 cells assessed as reduction in ATP production incubated for 24 hrs in galactose-containing medium by CellTiter-glo luminescence assay; assay type: functional, cell-based; conditions: MIA PaCa-2, 24 h
MIA PaCa-2 [4] = assay: Cytotoxicity against human MIA PaCa-2 cells assessed as inhibition of cell growth incubated for 7 days in glucose-containing medium by MTT assay; assay type: functional, cell-based; conditions: MIA PaCa-2, 168 h
[5] = Microsomal stability in mouse liver microsomes assessed as half life at 10 uM measured upto 60 mins by LC-MS/MS analysis; assay type: ADME, Microsome; conditions: for t1/2: microsomes, 1 h, 10 µM
[6] = Microsomal stability in human liver microsomes assessed as half life at 10 uM measured upto 60 mins by LC-MS/MS analysis; assay type: ADME, Microsome; conditions: for half-life at 10 µM: liver microsomes; for t1/2: microsomes, 1 h, 10 µM
MIA PaCa-2 [7] = assay: Inhibition of oxidative phosphorylation in human MIA PaCa-2 cells assessed as reduction in ATP production incubated for 24 hrs in glucose-containing medium by CellTiter-glo luminescence assay; assay type: functional, cell-based
BXPC-3 = assay: Cytotoxicity against human BXPC-3 cells assessed as inhibition of cell growth incubated for 7 days in glucose-containing medium by MTT assay; assay type: functional, cell-based; conditions: BXPC-3, 168 h
[8] = Cytotoxicity against human UM16 cells assessed as inhibition of cell growth; assay type: functional, cell-based
[9] = Inhibition of mitochondrial complex I (unknown origin) incubated for 20 hrs by Colorimetric assay
Homo sapiens = species on record: Homo sapiens; assay: Inhibition of complex-I-dependent oxygen consumption in mitochondria of human PC-3 cells by luxcel-dye staining based MitoXpress method; assay type: functional, cell-based
[10] = Inhibition of mitochondrial complex I in human HepG2 cells assessed as reduction in oxygen consumption rate incubated for 6 hrs by seahorse XF analyser based assay; assay type: cell-based
MIA PaCa-2 [11] = assay: Cytotoxicity against human MIA PaCa-2 cells assessed as inhibition of cell growth incubated for 3 days in glucose-containing medium by MTT assay; assay type: functional, cell-based; conditions: MIA PaCa-2, 72 h
NCI-H460 = assay: Cytotoxicity against human NCI-H460 cells assessed as reduction in galactose-dependent cell viability incubated for 3 days by IncuCyte live-cell imaging assay; assay type: functional, cell-based; conditions: NCI-H460, 72 h
[12] = Drug metabolism in mouse liver microsomes assessed as formation of de-ethylated diethyl-sulfonamide moiety metabolite at 10 uM measured after 7 to 30 mins by LC-MS/MS analysis; assay type: ADME, Microsome; conditions: time 7-30 min
[13] = Drug metabolism in mouse liver microsomes assessed as formation of hydroxylated piperidine ring moiety metabolite at 10 uM measured after 7 to 30 mins by LC-MS/MS analysis; assay type: ADME, Microsome; conditions: time 7-30 min
MIA PaCa-2 [14] = assay: Antitumor activity against human MIA PaCa-2 cells xenografted in C57BL/6 mouse syngeneic model assessed as tumor growth inhibition at 5 mg/kg, ip measured upto 28 days by digital caliper method; assay type: functional, organism-based; conditions: time day <=28
[15] = Toxicity in C57BL/6 mouse xenografted with human MIA PaCa-2 cells assessed as body weight loss at 5 mg/kg, ip measured twice a week for 28 days; assay type: organism-based; conditions: in vivo, 672 h, time 28 day
[16] = Kinetic aqueous solubility of the compound by turbidimetric method; assay type: physicochemical; conditions: buffer
[17] = Inhibition of mitochondrial complex I in human pancreatic cancer cells assessed as reduction in oxygen consumption rate measured immediately by seahorse XFe96 analyser based assay; conditions: pancreatic cancer cell

| Compound | IC50 [1] | IC50 (MIA PaCa-2 [2]) | IC50 [3] | IC50 (MIA PaCa-2 [4]) | inhibition (MIA PaCa-2 [7]) | t1/2 [5] | t1/2 [6] | IC50 (BXPC-3) | IC50 (MIA PaCa-2 [11]) | further results |
| --- | --- | --- | --- | --- | --- | --- | --- | --- | --- | --- |
| CC(C)c1noc(N2CCN(C(=O)[C@@H]3CCCN(S(=O)(=O)c4ccc(S(=O)(=O)C(C)C)cc4)C3)CC2)n1 | 0.0304 µM | > 10 µM | 0.0292 µM | 0.07 µM | inactive | – | – | – | – | half-life at 10 µM ([5]; liver microsomes): > 60 min; half-life at 10 µM [6]: > 60 min |
| CCC(CC)S(=O)(=O)c1ccc(S(=O)(=O)N2CCC[C@@H](C(=O)N3CCN(c4nc(C(C)C)no4)CC3)C2)cc1 | – | – | – | 0.05 µM | – | 7.77 min | 2.53 min | 0.12 µM | – | – |
| CCOC(=O)C1CCCN(S(=O)(=O)c2ccc(S(=O)(=O)N(CC)CC)cc2)C1 (racemic) | – | – | – | – | – | – | – | – | – | IC50 [8]: 0.58 µM |
| FC(F)(F)c1ccc(/C=C/c2nc(COc3ccc(CCCCn4ccnn4)cc3)co2)cc1 [MUBRITINIB] | – | – | – | – | – | – | – | – | – | IC50 [9]: 0.051 µM |
| Cc1cc(-c2nc(-c3ccc(OC(F)(F)F)cc3)no2)nn1Cc1ccnc(N2CCN(C3CC3)CC2)c1 | – | – | – | – | – | – | – | – | – | IC50 (Homo sapiens): 0.01 µM |
| CCOC(=O)[C@H]1CCCN(S(=O)(=O)c2ccc(S(=O)(=O)N(CC)CC)cc2)C1 | – | – | – | – | – | – | – | – | – | IC50 [8]: 9.47 µM |
| N=C(N)NC(=N)NCCc1ccccc1 [PHENFORMIN] | – | – | – | – | – | – | – | – | – | IC50 [10]: 3.8 µM |
| CCN(CC)C(=O)c1ccc(S(=O)(=O)N2CCC[C@@H](C(=O)N3CCN(c4nc(C(C)C)no4)CC3)C2)cc1 | – | > 10 µM | – | 0.1 µM | – | 10.47 min | 12.76 min | 1.4 µM | 0.07 µM | – |
| Cc1nc(-c2nc(-c3ccc(OC(F)(F)F)cc3)no2)nn1Cc1cccc(N2CCC(S(C)(=O)=O)CC2)c1 | – | – | – | – | – | – | – | – | – | IC50 (NCI-H460): 0.0014 µM |
| CCN(CC)S(=O)(=O)c1ccc(S(=O)(=O)N2CCC[C@@H](C(=O)N3CCN(c4nc(C(C)C)no4)CC3)C2)cc1 | 0.0082 µM | > 10 µM | 0.0307 µM | 0.05 µM | inactive | 7.7 min | 1.7 min | – | – | Drug metabolism [12]: Metabolite_Detected; Drug metabolism [13]: Metabolite_Detected |
| CC(C)c1noc(N2CCN(C(=O)[C@@H]3CCCN(S(=O)(=O)c4ccc(S(=O)(=O)C5CCC5)cc4)C3)CC2)n1 | 0.016 µM | > 10 µM | 0.0426 µM | 0.07 µM | inactive | – | – | – | 0.02 µM | Activity (MIA PaCa-2 [14]): Active; Activity [15]: Non-Toxic |
| CCOC(=O)[C@@H]1CCCN(S(=O)(=O)c2ccc(S(=O)(=O)N(CC)CC)cc2)C1 | 0.312 µM | > 10 µM | 0.119 µM | 0.4 µM | inactive | 0.7 min | 0.64 min | 0.6 µM | 0.09 µM | solubility [16]: > 200 µM; IC50 [8]: 0.31 µM |
| CC(C)c1noc(C2CCN(C(=O)[C@@H]3CCCN(S(=O)(=O)c4ccc(S(=O)(=O)C(C)C)cc4)C3)CC2)n1 | 0.0071 µM | > 10 µM | 0.0172 µM | 0.05 µM | inactive | 32.58 min | – | – | 0.02 µM | half-life at 10 µM [6]: > 60 min |
| CN(C)C(=N)NC(=N)N [METFORMIN] | – | – | – | – | – | – | – | – | – | IC50 [17]: 800 µM |
| CCN(CC)S(=O)(=O)c1ccc(S(=O)(=O)N2CCC[C@@H](C(=O)NC3COC3)C2)cc1 | 1.66 µM | > 10 µM | 0.951 µM | 2.3 µM | inactive | 27.1 min | 18.5 min | 13.8 µM | 0.9 µM | – |
| CC(C)NS(=O)(=O)c1ccc(S(=O)(=O)N2CCC[C@@H](C(=O)N3CCN(c4nc(C(C)C)no4)CC3)C2)cc1 | – | > 10 µM | – | 2.6 µM | – | 29.36 min | 3.36 min | 2.6 µM | 0.2 µM | – |
| CCCN(CCC)S(=O)(=O)c1ccc(S(=O)(=O)N2CCC[C@@H](C(=O)OCC)C2)cc1 | – | > 10 µM | – | 2.3 µM | – | – | – | 2.5 µM | 0.6 µM | – |
| CCOC(=O)[C@@H]1CCN(S(=O)(=O)c2ccc(S(=O)(=O)N(CC)CC)cc2)C1 | – | > 10 µM | – | 8.6 µM | – | – | – | 10 µM | 1.5 µM | – |
| CCN1CC(NC(=O)[C@@H]2CCCN(S(=O)(=O)c3ccc(S(=O)(=O)N(CC)CC)cc3)C2)C1 | – | > 10 µM | – | > 30 µM | – | – | – | > 30 µM | > 10 µM | – |
| CCOC(=O)N1CCC[C@@H](S(=O)(=O)c2ccc(S(=O)(=O)N(CC)CC)cc2)C1 | – | > 10 µM | – | > 30 µM | – | – | – | > 30 µM | > 10 µM | – |
